# In paper PMC11607671, “Antiviral activity of cathelicidins against porcine epidemic diarrhea virus (PEDV): Mechanisms, and efficacy” (Virus Research, 2024):
# Experiments:
# PEDV [1] = assay: Transmission electron microscopy of peptide-treated virus; design: species or system Porcine epidemic diarrhea virus; conditions: PEDV treated with 10 µM peptide, negative stain, Fig. 9; for effect on virus morphology / membrane (TEM): one minute at 37 °C
# Procedure: PEDV was treated with CATH-B1, LL-37, PMAP-23, and PMAP-36 for one minute at 37 °C. Subsequently, 10 µL of the sample was placed onto a freshly carbon-coated copper grid. The grids were washed 3 times with PBS and then fixed with 1% glutaraldehyde (Sigma-Aldrich, St. Louis, MO, USA) in PBS for 10 min. Following this fixation, the grids were rinsed 2 times with PBS and 4 times with MilliQ water. They were stained for 5 min in Uranyl Acetate (pH 7) then briefly washed with methylcellulose/uranyl acetate (pH 4) and incubated for 5 min on ice. Finally, the grids were looped out of the solution and air-dried. The samples were subsequently examined in a JEM1010 (JEOL) equipped with a Veleta 2k × 2k CCD camera (EMSIS, Munster, Germany).
# Fig. 9 The effect of AMPs on the morphology of the virus. PEDV (MOI=0.3), which was pre-incubated with peptides. TEM images were taken of PEDV alone (A–D), PEDV treated with 10 µM LL-37 (E-H), PEDV treated with 10 µM CATH-B1 (I-L), PEDV treated with 10 µM PMAP-23 (M, N), and PEDV treated with 10 µM PMAP-36 (O, P). […] Micrographs were captured with a pixel size of 0,5 nm and analyzed visually using ImageJ. The micrographs are representative of observations from three independent experiments. Scale bars represent 100 nm.
# PEDV-GFP [2] = assay: Co-incubation antiviral assay of the extended AMP panel and of FL LL-37; type: cell-based, Porcine epidemic diarrhea virus; conditions: FC; for prevention of PEDV-GFP entry into Vero cells, extended AMP panel, in words: co-incubation with PEDV-GFP, 1 and 5 µM, 3 h, two independent experiments in duplicate, Fig. 5
# Procedure: (§1) In order to determine the effect of AMPs on the infectivity of PEDV, Vero cells (5 × 10^5 per well) were seeded in 12-well plates and cultured overnight at 37 °C, 5% CO2. In a co-incubation of virus and AMPs experiments (Fig. 2A), the mixture of AMPs (0–10 µM) and PEDV-GFP (MOI= 0.3) in a 1 mL volume of DMEM (P/S + 10% FCS) was added to the cells and incubated at 37 °C. After 2 h, the supernatant was replaced with fresh DMEM (P/S + 10% FCS) and incubated for 24 h. Subsequently, the cells were washed 2 times with flow cytometry buffer (500 mL PBS+ 10 mL FCS+ 250 µL of 10% NaN3) and were imaged with an EVOS M5000 Imaging System for semi-quantitative determination of infectivity. Eventually, cells were carefully detached by 2.5% trypsin, stained with ViaKrome 808 fixable viability dye (1:1000), and incubated for 30 min at 4 °C. Following washing, the cells were fixed using 50 µL of 4% PFA for 10 min, and a minimum of 1 × 10^5 cells were acquired using the CytoFLEX LX Flow Cytometer (FC)(Beckman Coulter, USA). Data was analyzed using FlowJo software v.10.6 (Flowjo LCC, Ashland, OR, USA).
# This extended panel of AMPs encompassed chicken-derived peptides (D-CATH-2, l-CATH-2), mouse-derived peptide (CRAMP), horse-derived peptides (eCATH-1, eCATH-3), parrot-derived peptides (ER2, ER3, AG3), and synthetic peptides (CR165, CR174), all of which were readily accessible within our laboratory. As previously described, these AMPs were co-incubated with PEDV.
# Fig. 5 Antiviral effects of a diverse group of AMPs on PEDV infection. Vero cells were incubated for 3 h with a combination of PEDV-GFP and AMPs, as described previously. FC was utilized to assess the inhibitory impact of AMPs.
# Figure S4. The antiviral activity of FL LL-37 (fluorogenic LL-37 ) and unlabeled LL-37. Peptides were co-incubated at 1 and 5 µM with PEDV and added to Vero cells for 3 h, followed by FC analysis to examine the infectivity.
# PEDV [3] = assay: Co-incubation antiviral assay, PEDV MOI=1, Vero cells; type: cell-based, Porcine epidemic diarrhea virus; conditions: PEDV MOI=1, co-incubation, Vero cells, FC; Fig. 4B
# Procedure: as §1
# Fig. 4 The inhibitory effect of AMPs on PEDV at MOI=1. A) Fluorescence microscopy image was captured at 20 × magnification to visualize the GFP fluorescence signal in Vero cells following co-incubation of AMPs and PEDV at MOI=1. B) The percentage of GFP-positive cells was determined by FC after 3 h co-incubation of PEDV and AMPs. C) The fluorescence intensity of GFP across three different concentrations of LL-37 was illustrated through the FC histogram. […] The reported values in 4A represent the mean ± SD of three independent experiments performed in duplicate **** p < 0.0001.
# PEDV-GFP [4] = assay: Co-incubation antiviral assay, PEDV-GFP MOI=0.3, Vero cells (fluorescence microscopy and flow cytometry); type: cell-based, Porcine epidemic diarrhea virus
# Procedure: as §1
# Fig. 2 Effect of AMPs on the infectivity of PEDV (MOI=0.3). A) Experimental set-up of the ‘co-incubation assay’; Vero cells were subjected to 2 h exposure to a combination of AMPs and PEDV-GFP. Afterward, the supernatant was replaced, and the cells were incubated for an additional 24 h B) Fluorescent microscopy (20 × magnification) was performed to visualize the fluorescence signal of GFP in the presence of 1, 5, and 10 µM AMPs. The cell-only sample consists exclusively of cells while the no-peptide sample contains only PEDV-GFP, with no peptides present.
# Fig. 3 Antiviral activity of AMPs as determined by flow cytometry (FC). A) The percentage of GFP-positive cells following a 2 h incubation with a combination of PEDV and AMPs. […] The values reported here depict the average ± SD derived from three independent experiments performed in duplicate. * p < 0.05; ** p < 0.01.
# PEDV-GFP [5] = assay: Pre-incubation (pre-treatment) antiviral assay; type: cell-based, Porcine epidemic diarrhea virus; conditions: Vero cells treated 3 h with AMPs (0-10 µM), washed, then infected with PEDV-GFP MOI 0.3 for 2 h; FC; Fig. 6B, C
# Procedure: The effect of AMPs on viral infectivity was also determined when they were added to Vero-cells before (pre-treatment) or after (post-treatment) infection. In the pre-treatment assay (Fig. 6A), Vero cells were treated with different concentrations of CATH-B1 and LL-37 peptides (ranging from 0 to 10 µM) for various durations (1, 2, 3, 4, and 24 h) at 37 °C. Subsequently, the cells were washed 2 times with PBS and infected with PEDV-GFP at an MOI of 0.3 for 2 h
# In post-incubation assays (Fig. 7A), cells were initially exposed to the virus for 2 h, washed 2times with PBS and subsequently treated with AMPs for 3 h Both for pre- and post-infection assays, after the respective incubation periods, the cells were assessed using fluorescence microscopy and quantified using FC as described above.
# Fig. 6 Effects of AMPs in pre-incubation assay. A) Experimental set-up of pre-incubation experiment. B) FC was employed to quantify the percentage of GFP-positive cells during pre-incubation. […] The reported values represent the mean ± SD derived from three independent experiments performed in triplicate. * p < 0.05; ** p < 0.01.
# PEDV [6] = assay: Peptide-virus interaction assay with Capto Core 700 beads; type: cell-based, Porcine epidemic diarrhea virus; conditions: Fig. 8
# Procedure: In order to determine if CATH-B1 and LL-37 physically interact with PEDV, Capto Core 700 beads (GE Healthcare Life Sciences, Chicago, IL, USA) were used to selectively eliminate unbound AMPs. PEDV were pre-incubated with or without CATH-B1/LL-37 in Opti-MEM medium, and Capto Core 700 beads were added, followed by a 1 h incubation at 4 °C while slowly rotating. After centrifugation, supernatants were collected and applied to the cells. To make sure the AMP was removed effectively, we tested samples with peptides but no virus using the same process. The collected supernatants were used to inoculate cells, and the number of infected cells was determined using the described method.
# Fig. 8 Interactions between CATH-B1 and LL-37 with PEDV. CATH-B1/LL-37 were pre-incubated with the virus, and subsequently, the peptide and virus were separated using Capto Core beads. The supernatant containing the separated virus was then employed to infect Vero cells. […] The data is presented as the mean ± SEM of three independent experiments in duplicate, each with triplicate samples. **** p < 0.0001.
substance,measurement,setting,value
"GRFRRLRKKTRKRLKKIGKVLKWIPPIVGSIPLGCG [PMAP-36, porcine cathelicidin, 36 residues]",effect on virus morphology / membrane (TEM),PEDV [1],structure remained unchanged
"ISRLAGLLRKGGEKIGEKLKKIGQKIKNFFQKLVPQPE [CRAMP, mouse-derived peptide, 38 residues]","prevention of PEDV-GFP entry into Vero cells, extended AMP panel, in words",PEDV-GFP [2],failed to neutralize PEDV
"PIRNWWIRIWEWLNGIRKRLRQRSPFYVRG HLNVTSTPQP (PIRNWWIRIWEWLNGIRKRLRQRSPFYVRGHLNVTSTPQP) [CATH-B1, chicken cathelicidin, 40 residues]",virus aggregation (TEM),PEDV [1],extensive virus aggregation
same,effect on virus morphology / membrane (TEM),PEDV [1],significant membrane damage
same,"antiviral effect at MOI=1, in words",PEDV [3],diminished as the MOI increased
same,"percentage of GFP-positive cells (FC), co-incubation","PEDV-GFP [4]; 10 µM peptide, PEDV-GFP MOI=0.3, 2 h co-incubation then 24 h, no-peptide control approximately 35%, three independent experiments in duplicate, Fig. 3A",1–2%
same,"infected cells by fluorescent microscopy, co-incubation","PEDV-GFP [4]; PEDV-GFP MOI=0.3, 5 and 10 µM peptide, 2 h co-incubation then 24 h, compared to control without peptide, Fig. 2B",reduced numbers of infected cells
same,"antiviral activity in pre-incubation assay, in words",PEDV-GFP [5],strong activity only at 10 μM
same,"virus infectivity, peptide pre-incubated with beads before PEDV introduction","PEDV [6]; Capto Core 700 beads, Vero cells",minimal effects on virus infectivity
same,"virus infectivity, peptide incubated with PEDV without beads","PEDV [6]; no Capto Core 700 beads, Vero cells",a decrease in virus infectivity
same,antiviral activity when peptide is combined with virus and beads,"PEDV [6]; peptide + PEDV, then Capto Core 700 beads 1 h at 4 °C, supernatant applied to Vero cells",remained unchanged
"RIIDLLWRVRRPQKPKFVTVWVR [PMAP-23, porcine cathelicidin, 23 residues]",effect on virus morphology / membrane (TEM),PEDV [1],structure remained unchanged
"RRWVQRWIRRWRKVAAARRWVQRWIRRWRPKV [CR-174, non-naturally occurring synthetic (designed) AMP]","prevention of PEDV-GFP entry into Vero cells, extended AMP panel, in words",PEDV-GFP [2],unsuccessful in significantly preventing PEDV-GFP entry
"RRWVQRWIRWVQRWVR [CR-165, non-naturally occurring synthetic (designed) AMP]","prevention of PEDV-GFP entry into Vero cells, extended AMP panel, in words",PEDV-GFP [2],unsuccessful in significantly preventing PEDV-GFP entry
Tamra-(ahx)-LLGDFFRKSKEKIGKEFKRIVQRIKDFLRNLVPRTES [FL LL-37],effect of fluorogenic labelling on antiviral activity,"PEDV-GFP [2]; 1 and 5 µM co-incubated with PEDV, Vero cells 3 h, compared with unlabeled LL-37, Fig. S4",no effect on the antiviral activity
same,cellular localization (confocal microscopy),"Vero cells; 1 and 5 µM, 1 and 3 h incubation, Vero cells, fixed, DAPI, Fig. 10B",predominant intracellular localization
same,uptake or attachment to Vero cells (FC),"Vero cells; 3 h incubation with Vero cells, washing, FC fluorescence, two concentrations, unlabeled LL-37 as negative control, Fig. 10A",substantial concentration-dependent uptake or attachment
same,uptake at 4 °C (FC),"Vero cells; Vero cells at 4 °C versus 37 °C, 1 and 5 µM, 30, 60, 180 min, Fig. S5",significant reduction in the uptake
